From US20060210627A1, “Direct compression formulation and process” (priority 2005, published 2006)

Assays:
[1] = Water solubility (statement); assay type: physicochemical
[2] = Pharmacokinetic drug-drug interaction study of vildagliptin 100 mg qd and metformin 1000 mg qd in patients with type 2 diabetes; assay type: in vivo; conditions: human, plasma, single oral dose of 100 mg, concomitantly with 1000 mg of metformin
Description: Subjects are given an end-of-study evaluation on the last day of period 2 (Day 20). For all treatment periods, subjects fasted for a minimum of 10 hours pre-dose to 4 hours post-dose. Subjects are considered to have completed the study when all safety and pharmacokinetic evaluations have been completed.
The pharmacokinetic profiles are illustrated in FIG. 5.

clinical [3] = conditions: human, plasma, po
clinical [4] = conditions: human, plasma, po; remark: listed apart in the source
[5] = Water sorption/desorption isotherm (dynamic vapor sorption, DVS-1); assay type: physicochemical; conditions: 25° C.; for moisture gain: at 85% RH
Description: Measurements were carried out at 25° C.

N#C[C@@H]1CCCN1C(=O)CNC12CC3CC(CC(O)(C3)C1)C2 [vildagliptin, (S)-1-[(3-hydroxy-1-adamantyl)amino]acetyl-2-cyano-pyrrolidine]
water solubility [1]: highly water soluble
AUC(0-t) [2]: 1840 ng·h/mL
Tmax [2]: 2.5 h
Tmax (clinical [3]): 1 h
AUC(0-inf) (clinical [4]; 25 mg): 461 ± 91 ng·h/mL
AUC(0-t) (clinical [4]; 25 mg): 453 ± 91 ng·h/mL
Cmax (clinical [4]; 25 mg): 117 ± 41 ng/mL
Tmax (clinical [4]; 25 mg, tmax (h) median (min, max), single oral 25 mg FMI tablet, healthy volunteers): 1.5 h
AUC(0-inf) (clinical [4]; 50 mg): 1030 ng·h/mL
AUC(0-t) (clinical [4]; 50 mg): 1020 ± 193 ng·h/mL
Cmax (clinical [4]; 50 mg): 245 ± 87 ng/mL
Tmax (clinical [4]; 50 mg, arithmetic mean tmax of vildagliptin, single oral dose of 50 mg, healthy human subject): 2.1 h
Tmax (clinical [4]; 50 mg, tmax (h) median (min, max), single oral 50 mg FMI tablet, healthy volunteers): 1.5 h
AUC(0-inf) (clinical [4]; 100 mg): 2350 ng·h/mL
AUC(0-t) (clinical [4]; 100 mg): 2330 ± 278 ng·h/mL
Tmax (clinical [4]; 100 mg, arithmetic mean tmax of vildagliptin, single oral dose of 100 mg, healthy human subject): 2 h
Tmax (clinical [4]; 100 mg, tmax (h) median (min, max), single oral 100 mg FMI tablet, healthy volunteers): 1.75 h
AUC(0-inf) (clinical [4]; 200 mg): 5080 ± 721 ng·h/mL
AUC(0-t) (clinical [4]; 200 mg): 5060 ± 722 ng·h/mL
Cmax (clinical [4]; 200 mg): 1100 ± 280 ng/mL
Tmax (clinical [4]; 200 mg, tmax (h) median (min, max), single oral 200 mg FMI tablet, healthy volunteers): 1.25 h

N#C[C@@H]1CCCN1C(=O)CNC12CC3CC(CC(O)(C3)C1)C2 [vildagliptin amorphous form]
hygroscopicity [5]: hygroscopic
moisture gain [5]: 4.2%

N#C[C@@H]1CCCN1C(=O)CNC12CC3CC(CC(O)(C3)C1)C2 [Crystalline vildagliptin Form A, 1-[(3-Hydroxy-adamant-1-ylamino)-acetyl]-pyrrolidine-2(S)-carbonitrile]
hygroscopicity [5]: only very slightly hygroscopic
moisture gain [5]: 0.9%
